According to ChEMBL document CHEMBL1132837, “3-(4-Piperidinyl)- and 3-(8-aza-bicyclo[3.2.1]oct-3-yl)-2-phenyl-1H-indoles as bioavailable h5-HT2A antagonists” (Bioorg Med Chem Lett, 2000):

Columns and labels:
[1] = Oral bioavailability was determined in dogs; assay type: ADME, organism-based, Canis lupus familiaris; settings: dog, in vivo, read-out: Bioavailabiility
[2] = Oral bioavailability in rat; assay type: ADME, organism-based; settings: in vivo
[3] = target: 5-hydroxytryptamine receptor 2A (Homo sapiens, UniProt P28223); assay: Displacement of [3H]ketanserin from human 5-hydroxytryptamine 2A receptor expressed in CHO cells; assay type: cell-based
Sequence of 5-hydroxytryptamine receptor 2A (P28223 whole entry): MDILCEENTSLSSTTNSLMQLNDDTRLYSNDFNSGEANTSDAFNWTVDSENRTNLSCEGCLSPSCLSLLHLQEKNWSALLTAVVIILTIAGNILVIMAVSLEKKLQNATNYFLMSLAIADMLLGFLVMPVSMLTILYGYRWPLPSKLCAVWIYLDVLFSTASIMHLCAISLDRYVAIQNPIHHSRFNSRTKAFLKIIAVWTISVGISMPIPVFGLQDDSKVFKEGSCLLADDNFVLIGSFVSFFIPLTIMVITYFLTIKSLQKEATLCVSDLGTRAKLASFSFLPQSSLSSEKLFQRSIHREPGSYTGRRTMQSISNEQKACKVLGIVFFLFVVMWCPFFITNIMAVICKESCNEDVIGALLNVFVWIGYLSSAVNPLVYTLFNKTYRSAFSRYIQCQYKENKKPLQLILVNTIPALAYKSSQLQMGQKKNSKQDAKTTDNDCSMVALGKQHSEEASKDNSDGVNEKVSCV

[4] = target: Dopamine D2 receptor and serotonin 2a receptor (Homo sapiens) (UniProt P14416+P28223); assay: Selectivity as ratio of Ki against human dopamine D2 and 5-HT2A receptors; assay type: protein assay
Sequence of Dopamine D2 receptor and serotonin 2a receptor (Homo sapiens) (P14416 whole entry, looked up): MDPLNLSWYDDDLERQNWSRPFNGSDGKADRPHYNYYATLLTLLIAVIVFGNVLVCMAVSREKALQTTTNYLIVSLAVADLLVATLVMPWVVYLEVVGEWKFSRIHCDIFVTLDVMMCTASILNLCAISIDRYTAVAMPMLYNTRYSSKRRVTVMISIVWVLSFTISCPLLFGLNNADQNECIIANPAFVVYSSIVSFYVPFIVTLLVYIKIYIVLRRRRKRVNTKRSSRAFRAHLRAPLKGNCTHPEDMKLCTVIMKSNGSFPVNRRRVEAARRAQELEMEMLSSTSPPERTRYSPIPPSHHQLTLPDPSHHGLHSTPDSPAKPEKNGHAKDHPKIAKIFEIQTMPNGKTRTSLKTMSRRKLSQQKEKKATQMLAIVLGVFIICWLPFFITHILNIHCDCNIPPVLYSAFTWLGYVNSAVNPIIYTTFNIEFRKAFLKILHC
Sequence of Dopamine D2 receptor and serotonin 2a receptor (Homo sapiens) (P28223 whole entry, looked up): as the sequence (P28223 whole entry) above

[5] = target: Serotonin 2 receptors; 5-HT2a & 5-HT2c (Homo sapiens) (UniProt P28223+P28335); assay: Selectivity as ratio of Ki against human 5-HT2C and 5-HT2A receptors; assay type: protein assay
Sequence of Serotonin 2 receptors; 5-HT2a & 5-HT2c (Homo sapiens) (P28223 whole entry, looked up): as the sequence (P28223 whole entry) above
Sequence of Serotonin 2 receptors; 5-HT2a & 5-HT2c (Homo sapiens) (P28335 whole entry, looked up): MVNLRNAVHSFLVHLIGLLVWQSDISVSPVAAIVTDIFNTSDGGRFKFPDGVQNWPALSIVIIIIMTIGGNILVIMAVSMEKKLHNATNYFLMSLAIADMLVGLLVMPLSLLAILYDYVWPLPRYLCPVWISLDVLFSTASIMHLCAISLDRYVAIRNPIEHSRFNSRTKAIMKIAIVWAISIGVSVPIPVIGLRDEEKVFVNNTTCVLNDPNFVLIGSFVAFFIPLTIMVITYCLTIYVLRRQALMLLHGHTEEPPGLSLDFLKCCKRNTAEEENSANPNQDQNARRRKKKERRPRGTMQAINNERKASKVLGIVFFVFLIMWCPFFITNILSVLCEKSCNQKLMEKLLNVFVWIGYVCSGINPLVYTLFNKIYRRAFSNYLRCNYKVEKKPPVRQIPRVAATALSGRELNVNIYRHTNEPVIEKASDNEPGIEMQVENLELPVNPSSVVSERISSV

## O=C1NCCN1CCN1CCC(c2c(-c3ccccc3)[nH]c3ccccc23)CC1
[1]
  bioavailability: 33%
[2]
  bioavailability: 40%
[3]
  Ki: 7.3 nM
[4]
  Ratio: 250
[5]
  Ratio: 160

## c1ccc(CCN2C3CCC2CC(N2CCC(c4c(-c5ccccc5)[nH]c5ccccc45)CC2)C3)cc1 (stereo in doubt; 18) [listing 1 of 2 here]
[3]
  Ki: 2.6 nM

## c1ccc(CCN2CCC(c3c(-c4ccccc4)[nH]c4ccccc34)CC2)cc1
[2]
  bioavailability: 12%
[3]
  Ki: 0.5 nM
[4]
  Ratio: 690
[5]
  Ratio: 160

## c1ccc(CCN2C3CCC2CC(N2CCC(c4c(-c5ccccc5)[nH]c5ccccc45)CC2)C3)cc1 (stereo in doubt; 18) [listing 2 of 2 here]
[4]
  Ratio: 170
[5]
  Ratio: 60

## CN1[C@@H]2CC[C@H]1C[C@H](N1CCC(c3c(-c4ccccc4)[nH]c4ccccc34)CC1)C2 (stereo in doubt; 15) [listing 1 of 2 here]
[4]
  Ratio: 960
[5]
  Ratio: 45

## CN1CCC(c2c(-c3ccccc3)[nH]c3ccccc23)CC1
[3]
  Ki: 7.8 nM
[4]
  Ratio: 205
[5]
  Ratio: 30

## CN1[C@@H]2CC[C@H]1C[C@H](N1CCC(c3c(-c4ccccc4)[nH]c4ccccc34)CC1)C2 (stereo in doubt; 13) [listing 1 of 2 here]
[3]
  Ki: 1.1 nM

## CN1[C@@H]2CC[C@H]1C[C@H](N1CCC(c3c(-c4ccccc4)[nH]c4ccccc34)CC1)C2 (stereo in doubt; 15) [listing 2 of 2 here]
[3]
  Ki: 1.5 nM

## c1ccc(-c2[nH]c3ccccc3c2CCN2CCCCC2)cc1
[2]
  bioavailability: < 5%
[4]
  Ratio: 330
[5]
  Ratio: 100

## c1ccc(CCN2C3CCC2CC(N2CCC(c4c(-c5ccccc5)[nH]c5ccccc45)CC2)C3)cc1 (stereo in doubt; 17) [listing 1 of 2 here]
[4]
  Ratio: 1080
[5]
  Ratio: 860

## CN1[C@@H]2CC[C@H]1C[C@H](N1CCC(c3c(-c4ccccc4)[nH]c4ccccc34)CC1)C2 (stereo in doubt; 13) [listing 2 of 2 here]
[4]
  Ratio: 1190
[5]
  Ratio: 70

## c1ccc(-c2[nH]c3ccccc3c2C2CCNCC2)cc1
[3]
  Ki: 12.1 nM
[4]
  Ratio: 130
[5]
  Ratio: 30

## c1ccc(-c2[nH]c3ccccc3c2C2CC3CCC(C2)N3)cc1 (configuration not stated)
[3]
  Ki: 1.8 nM
[4]
  Ratio: 1060
[5]
  Ratio: 200

## c1ccc(CN2CCC(c3c(-c4ccccc4)[nH]c4ccccc34)CC2)cc1
[3]
  Ki: 28 nM
[4]
  Ratio: 2
[5]
  Ratio: 30

## c1ccc(CCN2C3CCC2CC(N2CCC(c4c(-c5ccccc5)[nH]c5ccccc45)CC2)C3)cc1 (stereo in doubt; 17) [listing 2 of 2 here]
[2]
  bioavailability: 18%
[3]
  Ki: 1.2 nM
